This note sets out measurements from ChEMBL document CHEMBL3301464, “MMV Malaria Box anti-babesial screening”.

Experiment [1] is described as follows: (§1) MMV: Anti-babesial activity assay. Parasite pRBCs at 1% parasitemia were cultivated in 100 ul with 96-well plates at 2.5% and 5% hematocrits. The parasites were cultivated in triplicate for 4 days without replacement of the medium for each concentration of the compound. Format: functional, Babesia equi.
Experiment [2] can be described thus: as §1. It is filed as functional, Babesia bovis.
Experiment [3] in a line: as §1. It is filed as functional, Babesia bigemina.
Experiment [4] can be described thus: as §1. Format: functional, Babesia caballi.

For the molecule `CCCCC(O)(c1ccc(Cl)cc1)C(CN1CCOCC1)c1ccc(Cl)cc1` (centres undefined), the IC50 in experiment [1] stood at 13.2 µM; in experiment [2], 11.9 µM; in experiment [3] it was 0.1 µM; in experiment [4], 0.55 µM.
`COCCn1c(C)nc2ccccc2c1=O`: the IC50 in experiment [1] came out at 12.9 µM; in experiment [2], 14.3 µM; in experiment [3] it was 14.7 µM; in experiment [4] it was 13.9 µM.
For `COc1cccc(C=Cc2nc(=O)c3ccccc3o2)c1OC` the same measures were 16.5 µM, over 25 µM, 20 µM and 22.3 µM.
On to `COc1cccc(Nc2nc(NCCO)c3ccccc3n2)c1`, for which the IC50 in experiment [1] came to 4.09 µM; in experiment [2] it was 6.99 µM; in experiment [3], 1 µM; in experiment [4], 1.3 µM.
Regarding `COc1cccc(NC(=O)Cn2c(C)c(C#N)c3ccccc32)c1`, the IC50 in experiment [1] came out at 7.3 µM; in experiment [2], 9.04 µM; in experiment [3], 14.8 µM; in experiment [4], 10.1 µM.
Turning to `O=C(Nc1ccc(Cl)cc1C(=O)Nc1ccncc1)c1ccc(Cl)cc1Cl`, the IC50 in experiment [1] was 3.61 µM; in experiment [2] it was 10 µM; in experiment [3], 19.7 µM; in experiment [4], 5.64 µM.
For `OC1=C2C(=Nc3ccccc3SC2c2ccc(Br)cc2)c2ccccc21` (centres undefined) the same measures were 12 µM, 11.1 µM, 15.2 µM and 7.95 µM.
As to `CCOc1cccc2sc(N(Cc3cccnc3)C(=O)C3CCCCC3)nc12`, the IC50 in experiment [1] was 4.77 µM; in experiment [2], 25 µM; in experiment [3], 21.6 µM; in experiment [4] it was 0.076 µM.
Regarding `CC(C)c1ccc(CNCC(O)c2ccccc2)cc1` (centres undefined), the IC50 in experiment [1] was 10 µM; in experiment [2], 14.3 µM; in experiment [3], over 25 µM; in experiment [4], 12.4 µM.
Taken in the same sequence, the figures for `Cc1cc(NC(=O)C2c3ccccc3C(=O)N(CC(C)C)C2c2cccs2)no1` (centres undefined) were 3 µM, 12.6 µM, 2.57 µM and 13 µM.
Taken in the same sequence, the figures for `O=C(NC1CCN(Cc2ccccc2)CC1)c1cc(-c2cccnc2)nc2ccc(Cl)cc12` were 0.48 µM, over 25 µM, 13.9 µM and 0.071 µM.
Turning to `CCn1nc(-c2ccc(C(=O)OC)cc2)nc2c(=O)n(C)c(=O)nc1-2`, the IC50 in experiment [1] is 5.06 µM; in experiment [2], 12.8 µM; in experiment [3], 7.89 µM; in experiment [4] it was 0.09 µM.
Taken in the same sequence, the figures for `CCOC(=O)C1=CN(C)C=C(C(=O)OCC)C1c1cc(Br)c(OCC)c(OC)c1` were 14.1 µM, 0.091 µM, 0.1 µM and 2.63 µM.
For `Oc1ccc(-c2nc(-c3ccc4oc5ccc(-c6[nH]c(-c7ccc(O)cc7)nc6-c6ccccc6)cc5c4c3)c(-c3ccccc3)[nH]2)cc1` the same measures were 0.1 µM, 0.059 µM, 1.39 µM and 10 µM.
On to `COc1ccc(C(O)(CCC(C)C)C(CN2CCOCC2)c2ccc(Cl)cc2)cc1` (centres undefined), for which the IC50 in experiment [1] was determined as 3.45 µM; in experiment [2] it was 0.091 µM; in experiment [3] it was 0.068 µM; in experiment [4], 14.8 µM.
In the case of `O=C(NC1CCCCC1)C(c1cccs1)N(CCc1ccccc1)C(=O)c1ccco1` (centres undefined), the IC50 in experiment [1] came out at 14.1 µM; in experiment [2] it was 8.8 µM; in experiment [3], 10.7 µM; in experiment [4] it was 10.7 µM.
Turning to `O=c1nc(C=Cc2ccc(Br)cc2)oc2ccccc12`, the 50% inhibitory concentration (IC50) amounted to 14.3 µM in experiment [1], 15.3 µM in experiment [2], 10 µM in experiment [3] and 13.6 µM in experiment [4].
Taken in the same sequence, the figures for `CCOC(=O)C1=C(C)N=c2sc(=Cc3ccccc3O)c(=O)n2C1c1ccc(OC)c2ccccc12` (centres undefined) were 10 µM, 21.7 µM, 16 µM and 8.43 µM.
Taken in the same sequence, the figures for `COc1ccc2nc(N)nc(C)c2c1` were 3.03 µM, 7.23 µM, 15.6 µM and 4.19 µM.
For `COc1ccc(C)c2sc(N(Cc3cccnc3)C(=O)c3ccc(C#N)cc3)nc12` the same measures were 5.69 µM, 0.24 µM, 0.55 µM and 15.2 µM.
In the case of `CCOc1ccc(C2N(C)c3ccccc3N2C)cc1`, the IC50 worked out at 3.53 µM in experiment [1], 5.5 µM in experiment [2], 0.85 µM in experiment [3] and 0.5 µM in experiment [4].
Taken in the same sequence, the figures for `Cc1cc(C)cc(Nc2cc(C)nc3nc(C(F)(F)F)nn23)c1` were 21.9 µM, 20.6 µM, 13.6 µM and 12.4 µM.
Taken in the same sequence, the figures for `FC(F)(F)c1ccc(Nc2nnnc3ccccc23)cc1` were 10 µM, 25 µM, 7.18 µM and 13.4 µM.
Taken in the same sequence, the figures for `O=C(CSc1ccc2nnc(-c3cccc(F)c3)n2n1)Nc1ccc2c(c1)OCO2` were 12.9 µM, 11.9 µM, 20.2 µM and 18.2 µM.
Consider `CN1C=C(c2ccc3ccccc3n2)C(c2c[nH]c3ccccc23)c2ccccc21` (centres undefined), for which the IC50 in experiment [1] is 5.12 µM; in experiment [2], 5.9 µM; in experiment [3], 4.52 µM; in experiment [4], 0.304 µM.
Take `Cc1[nH]c(-c2ccc(F)cc2)cc1C(=O)NC1CCN(Cc2ccccc2)CC1`: the IC50 worked out at 0.58 µM in experiment [1], 0.303 µM in experiment [2], 4.29 µM in experiment [3] and 8.21 µM in experiment [4].
Taken in the same sequence, the figures for `CC(=O)c1sc(NC(=O)Nc2ccc(C)cc2C)nc1C` were 7.26 µM, 11.1 µM, 10 µM and 5.3 µM.
In the case of `Oc1ccc(C(=C(Cl)Cl)c2ccc(O)cc2)cc1`, the IC50 in experiment [1] is 13.8 µM; in experiment [2], 15.9 µM; in experiment [3], over 25 µM; in experiment [4], 21.1 µM.
For `O=C(Nc1ccccc1O)c1ccc(-c2ccc(Cl)cc2Cl)o1` the same measures were 12.5 µM, 4.65 µM, 19 µM and 6.51 µM.
Turning to `CN1CCN(c2c3c(c(C#N)c4nc5ccccc5n24)CCC3)CC1`, the IC50 in experiment [1] is 8.25 µM; in experiment [2], 13.3 µM; in experiment [3], 19.2 µM; in experiment [4] it was over 25 µM.
For `CCCCNc1nc(NC(C)(C)C)nc(NC(C)(C)C)n1`, the concentration for half-maximal inhibition (IC50) is 0.25 µM in experiment [1], 0.65 µM in experiment [2], 1 µM in experiment [3] and 0.672 µM in experiment [4].
Taken in the same sequence, the figures for `COc1cccc(C(=O)NC(c2ccc(C)cc2)c2cc(Cl)c3cccnc3c2O)c1` (centres undefined) were 3.73 µM, 4.68 µM, 1.4 µM and 16.1 µM.
For `Cc1ccc(Nc2nc(NCCO)c3ccccc3n2)cc1C` the same measures were 2.2 µM, 3.63 µM, 6.36 µM and 5 µM.
Take `CN(C)c1ccc(N2C(N)=NC(N)=NC2(C)C)cc1`: the IC50 in experiment [1] worked out at 10.1 µM; in experiment [2], 1 µM; in experiment [3] it was 12.9 µM; in experiment [4], 5.06 µM.
Taken in the same sequence, the figures for `COc1ccc(-c2cn3c(C(=O)Nc4ccccc4Cl)c(-c4ccccc4)c4c3n2CCCC4)cc1` were 1 µM, 0.77 µM, 21.6 µM and 12.5 µM.
Taken in the same sequence, the figures for `FC(F)(F)c1cccc(CNC2CCN(CCc3ccccc3)CC2)c1` were 1.87 µM, 15.6 µM, 0.36 µM and 5.35 µM.
Taken in the same sequence, the figures for `Cc1ccc2nc(C)cc(Nc3cccc(C(F)(F)F)c3)c2c1` were 5.5 µM, 6.31 µM, 17.5 µM and 6.72 µM.
`COc1ccc2c(c1)C1(Nc3ccccc3-c3nc4ccccc4n31)C(=O)N2` (centres undefined): the IC50 in experiment [1] came to 3.52 µM; in experiment [2] it was 16.8 µM; in experiment [3] it was 14.2 µM; in experiment [4], 3.9 µM.
Taken in the same sequence, the figures for `O=c1nc(C=Cc2ccc(Cl)cc2)oc2ccccc12` were 8.25 µM, 14.3 µM, over 25 µM and 11.5 µM.
Regarding `COc1ccc(-c2cc3c(nn2)-c2ccccc2C3=O)cc1`, the half-maximal inhibitory concentration (IC50) in experiment [1] came out at 9.18 µM; in experiment [2] it was 0.34 µM; in experiment [3] it was 10 µM; in experiment [4], 14.8 µM.
For `CC(C)OCc1cc(CN2CCN(c3cccc(Cl)c3)CC2)c(O)c2ncccc12` the same measures were 1 µM, 0.59 µM, 0.92 µM and 0.073 µM.
For `COc1cc2c3cc1Oc1c(OC)c(OC)cc4c1C(Cc1ccc(O)c(c1)Oc1ccc(cc1)CC3N(C)CC2)N(C)CC4` (centres undefined) the same measures were 0.26 µM, 0.068 µM, 10 µM and 3.86 µM.
Taken in the same sequence, the figures for `COC(=O)c1ccc(C2C3=C(O)CC(c4ccc(F)cc4)CC3=Nc3ccccc3N2C(=O)c2ccccc2)cc1` (centres undefined) were 10.4 µM, 0.063 µM, 0.086 µM and 6.86 µM.
Regarding `CCn1c(SCC(=O)Nc2cc(C(F)(F)F)ccc2Cl)nc2ccccc2c1=O`, the half-maximal inhibitory concentration (IC50) in experiment [1] turned out to be 15.8 µM; in experiment [2] it was 25 µM; in experiment [3], 3.32 µM; in experiment [4], 14.8 µM.
Taken in the same sequence, the figures for `CCOc1c(Cl)cc(CNCC(O)c2ccccc2)cc1OC` (centres undefined) were 10 µM, 6.8 µM, 18.9 µM and 4.77 µM.
`O=c1cc(NC2CCN(CCCc3ccccc3)CC2)c2cc(Cl)ccc2o1`: the IC50 in experiment [1] was determined as 8.77 µM; in experiment [2], 18.2 µM; in experiment [3] it was 10 µM; in experiment [4], 16.5 µM.
